Results taken from patent publication US9637453B2, “3-spirocyclic-6-hydroxamic acid tetralins as HDAC inhibitors” (Forma Therapeutics, Inc., priority 2015, dated 2017).

Key:
[1] = biological target: T1, Full length human recombinant HDAC11 (Homo sapiens, UniProt Q96DB2); assay: In vitro histone deacetylase assay, enzymatic HDAC11 (electrophoretic mobility shift assay); type: biochemical; conditions: 10 nM HDAC11; 2 μM peptide substrate FAM-RHKK(tri-fluor-Ac)—NH2; 25° C.; 12 concentrations; read-out: HDAC11 Activity Range (IC50)
T1 construct: Full length human recombinant HDAC6 and HDAC11 proteins were expressed in baculoviral system
T1 sequence (Q96DB2 1-347): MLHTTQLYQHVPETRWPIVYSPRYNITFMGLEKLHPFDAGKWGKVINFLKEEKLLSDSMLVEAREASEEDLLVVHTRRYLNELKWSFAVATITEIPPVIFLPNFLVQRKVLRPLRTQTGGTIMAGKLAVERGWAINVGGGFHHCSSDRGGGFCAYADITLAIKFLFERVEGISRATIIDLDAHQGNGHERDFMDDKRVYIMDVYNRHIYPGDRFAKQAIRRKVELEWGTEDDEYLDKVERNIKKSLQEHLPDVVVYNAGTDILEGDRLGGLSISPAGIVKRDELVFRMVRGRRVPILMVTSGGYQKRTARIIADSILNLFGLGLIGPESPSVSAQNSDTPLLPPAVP
How it was run: (§1)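 Baculovirus-expressed full-length enzymes (HDAC6 1 nM, FAM-RHKK(Ac)-NH2; HDAC11 10 nM, FAM-RHKK(tri-fluor-Ac)-NH2), 2 μM substrate, HEPES pH 7.5, 25°C, 12-point 3× dilutions. Product/substrate separated by microfluidic mobility shift after SDS quench; IC50 from 4-parameter fit, reported as +/++/+++ bins.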

[2] = biological target: T2, Full length human recombinant HDAC6 (Homo sapiens, UniProt Q9UBN7); assay: In vitro histone deacetylase assay, enzymatic HDAC6 (electrophoretic mobility shift assay); type: biochemical; conditions: 1 nM HDAC6; 2 μM peptide substrate FAM-RHKK(Ac)—NH2; 25° C.; 12 concentrations; read-out: HDAC6 Activity Range (IC50)
T2 construct: Full length human recombinant HDAC6 and HDAC11 proteins were expressed in baculoviral system
T2 sequence (Q9UBN7 1-1215): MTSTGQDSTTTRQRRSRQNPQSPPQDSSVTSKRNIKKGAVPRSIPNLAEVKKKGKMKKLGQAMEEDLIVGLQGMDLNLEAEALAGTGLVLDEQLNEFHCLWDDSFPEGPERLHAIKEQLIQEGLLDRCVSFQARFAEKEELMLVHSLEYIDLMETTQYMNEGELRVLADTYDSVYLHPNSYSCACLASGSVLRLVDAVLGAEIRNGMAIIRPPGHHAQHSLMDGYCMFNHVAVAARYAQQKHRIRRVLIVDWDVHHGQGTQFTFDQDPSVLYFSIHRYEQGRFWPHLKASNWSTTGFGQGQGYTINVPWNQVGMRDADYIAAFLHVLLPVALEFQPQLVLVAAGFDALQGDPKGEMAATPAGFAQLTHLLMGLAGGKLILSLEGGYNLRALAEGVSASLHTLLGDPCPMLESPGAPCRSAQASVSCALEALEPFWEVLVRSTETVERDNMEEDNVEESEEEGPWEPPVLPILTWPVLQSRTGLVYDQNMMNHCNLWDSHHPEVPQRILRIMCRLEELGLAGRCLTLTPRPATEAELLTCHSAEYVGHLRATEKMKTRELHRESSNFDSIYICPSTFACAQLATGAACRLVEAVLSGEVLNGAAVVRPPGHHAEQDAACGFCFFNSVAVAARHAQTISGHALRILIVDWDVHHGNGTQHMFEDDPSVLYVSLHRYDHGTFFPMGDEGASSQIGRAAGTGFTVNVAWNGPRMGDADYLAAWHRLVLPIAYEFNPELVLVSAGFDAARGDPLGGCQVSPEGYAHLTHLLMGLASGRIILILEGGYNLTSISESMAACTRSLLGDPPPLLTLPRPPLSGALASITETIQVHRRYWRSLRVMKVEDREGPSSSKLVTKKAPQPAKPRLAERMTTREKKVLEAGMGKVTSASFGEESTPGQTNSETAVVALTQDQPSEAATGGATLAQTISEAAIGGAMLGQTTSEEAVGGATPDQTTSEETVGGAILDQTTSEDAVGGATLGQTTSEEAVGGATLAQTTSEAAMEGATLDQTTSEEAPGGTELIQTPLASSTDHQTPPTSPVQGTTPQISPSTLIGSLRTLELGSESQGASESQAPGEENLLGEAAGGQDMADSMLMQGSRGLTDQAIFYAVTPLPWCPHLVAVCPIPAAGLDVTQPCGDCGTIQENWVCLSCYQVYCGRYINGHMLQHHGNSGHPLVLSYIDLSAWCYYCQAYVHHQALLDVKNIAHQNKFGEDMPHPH
How it was run: as §1

| IC50 [1] | IC50 [2] | Structure (SMILES) |
| --- | --- | --- |
| > 500 nM | ≤ 100 nM | COc1ccc(C(=O)N2CCC3(CCc4ccc(C(=O)NO)cc4O3)CC2)cc1 [II-1, N-hydroxy-1′-(4-methoxybenzoyl)spiro[chroman-2,4′-piperidine]-7-carboxamide] |
| > 500 nM | ≤ 100 nM | COc1ccc(S(=O)(=O)N2CCC3(CCc4ccc(C(=O)NO)cc4O3)CC2)cc1 [II-2, N-hydroxy-1′-((4-methoxyphenyl)sulfonyl)spiro[chromane-2,4′-piperidine]-7-carboxamide] |
| ≤ 100 nM | ≤ 100 nM | O=C(NO)c1ccc2c(c1)OC1(CC2)CCN(S(=O)(=O)C2CCCCC2)CC1 [II-3, 1′-(cyclohexylsulfonyl)-N-hydroxyspiro[chromane-2,4′-piperidine]-7-carboxamide] |
| > 500 nM | ≤ 100 nM | O=C(NO)c1ccc2c(c1)OC1(CC2)CCN(C(=O)Nc2ccccc2)CC1 [II-4, N7-hydroxy-N1′-phenylspiro[chroman-2,4′-piperidine]-1′,7-dicarboxamide] |
| 100 to 500 nM | ≤ 100 nM | O=C(NO)c1ccc2c(c1)OC1(CC2)CCN(C(=O)C2CCCCC2)CC1 [II-5, 1′-(cyclohexanecarbonyl)-N-hydroxyspiro[chromane-2,4′-piperidine]-7-carboxamide] |
| ≤ 100 nM | 100 to 500 nM | O=C(NO)c1ccc2c(c1)OC1(CC2)CCN(C2CCCCC2)CC1 [II-6, 1′-cyclohexyl-N-hydroxyspiro[chroman-2,4′-piperidine]-7-carboxamide] |
| > 500 nM | > 500 nM | COc1ccc(CN2CCC3(CCc4ccc(C(=O)NO)cc4O3)CC2)cc1 [II-7, N-hydroxy-1′-(4-methoxybenzyl)spiro[chromane-2,4′-piperidine]-7-carboxamide] |

Second part, the compound before the results:

| Structure (SMILES) | IC50 [1] | IC50 [2] |
| --- | --- | --- |
| O=C(NO)c1ccc2c(c1)C[C@]1(CC2)CC(=O)N(CC2COC2)C1 [Compound I-146, (R)—N-hydroxy-1′-(oxetan-3-ylmethyl)-5′-oxo-3,4-dihydro-H-spiro[naphthalene-2,3′-pyrrolidine]-7-carboxamide] | > 500 nM | ≤ 100 nM |
| O=C(NO)c1ccc2c(c1)C[C@@]1(CC2)CC(=O)N(CC2COC2)C1 [Compound I-147, (S)—N-hydroxy-1′-(oxetan-3-ylmethyl)-5′-oxo-3,4-dihydro-1H-spiro[naphthalene-2,3′-pyrrolidine]-7-carboxamide] | > 500 nM | ≤ 100 nM |
| O=C(NO)c1ccc2c(c1)C[C@]1(CC2)CC(=O)N(C2CC2)C1 [Compound I-148, (R)-1′-cyclopropyl-N-hydroxy-5′-oxo-3,4-dihydro-H-spiro[naphthalene-2,3′-pyrrolidine]-7-carboxamide] | > 500 nM | ≤ 100 nM |
| O=C(NO)c1ccc2c(c1)C[C@]1(CC2)CC(=O)N(CC(F)(F)F)C1 [Compound I-149, (R)—N-hydroxy-5′-oxo-1′-(2,2,2-trifluoroethyl)-3,4-dihydro-1H-spiro[naphthalene-2,3′-pyrrolidine]-7-carboxamide] | > 500 nM | ≤ 100 nM |
